Eleven compounds from patent US20250170248A1, “SMARCA DEGRADERS AND USES THEREOF” (Kymera Therapeutics, Inc., priority 2021, published 2025) can be followed below.

Holding throughout (assay type): cell-based
Test [1] has as its target T1, SMARCA2 (Homo sapiens, UniProt P51531). Kind of test: MSD SMARCA2 degradation in A549 cell line. The settings on record: for Dmax: A549, A549 cells; for Dmax / DC50: 24 h; for DC50 / SMARCA2 MSD A549 degradation 24 h: Average Dmax %: A549 cells; for DC50: read-out: SMARCA2 MSD A549 degradation 24 h: Average external-Abs DC50. As to the method:
Example 10. MSD SMARCA2 Degradation in A549 Cell Line
Cells were seeded into 96-well plates (A549 cells: 2×10^4 cells/well/100 ul media) and incubated overnight. The next day, 200 nL compound were added into the intermediate plate with Echo (Labcyte 550) from source plate containing a 3-fold serial dilution from top concentration of 1 mM. The culture medium was changed with 8 0ul of fresh medium and 80 μL of 2× compound solution was added into the well to make a final concentration of 1000 nM, 333.3 nM, 111.1 nM, 37.04 nM, 12.35 nM, 4.115 nM, 1.372 nM, 0.457 nM, 0.152 nM and 0 nM (DMSO). The wells were mixed and then incubated for 24 hours. The media was aspirated from the cultures and 60 ul pre-chilled PIPA lysis buffer (Boston BioProducts BP-115D) with protease/phosphatase inhibitor (Roche 05892791001/Roche 04906837001) was added into the well to lyze the cells for 20 minutes at 4° C. The MSD plate (L15XA) was coated with 40 uL cell lysate and incubated at 4° C. overnight. The next day, the plate was washed three times with TBST (CST #9997S), 150 ul/well. The MSD plates was blocked with 150 ul blocking buffer per well and shaked for 1 hr at RT, 600 rpm. The blocking buffer was 3% Blocker A (MSD, R93BA-4) in TBST. The MSD plate was washed three times with 150 uL/well of TBST and 25 ul/well of detection antibody (Rabbit anti-SMARCA2/BRM antibody, 100 μg/mL, ab223735) was added at final concentration of 1 μg/mL diluted in 1% Blocking buffer and shaken for 1 hour at RT, 600 rpm. The MSD plate was washed three times with 150 ul/well of TBST and 25 ul/well of SULFO-TAG anti-rabbit antibody (MSD, R32AB-1) was added at final concentration of 1 μg/ml diluted in 1% Blocking buffer and shaken for 1 hour at RT, 600 rpm. The MSD plate was washed three times with 150 uL/well of TBST and 150 ul/well of 2× MSD reading buffer diluted from 4× (MSD, R92TC-2) with water was added. Lastly, the MSD instrument was read.
The letter codes for SMARCA2 degradation potency (DC50) include: A (<10 nM), B (10-50 nM), C (>50-100 nM), and D (>100 nM). The letter codes for the percentage of SMARCA degradation after 24 hours (Dmax %) include: A (>90% degradation), B (>70-90% degradation), C (50-70% degradation), and D (<50% degradation).

Another test concerns the target T2, SMARCA4 (Homo sapiens, UniProt P51532).
T2 construct: SMARCA2/SMARCA4 protein degradation selectivity in MV4-11 cells; endogenous in cells; host or cells: MV4-11
Nature of the test: SMARCA4 Western blot degradation in MV4-11 cells. The settings on record: 24 h; for Dmax: MV4-11, MV4-11 cells, read-out: SMARCA4 MSD MV411 degradation 24 h: average Dmax %; for DC50: MV4-11 cells, read-out: SMARCA4 MSD MV411 degradation 24 h: Mean external-Abs DC50. The procedure:
Example 11. SMARCA2 and SMARCA4 Western Blot MV4-11 Degradation
Cells were seeded into 6-well plates (MV4-11:4×10^6 cells/well/1 ml) and 1 ml of 2× compound solution was added into the well to make the final concentration and the plates were mixed well and incubated for 24 hours (No cytotoxicity was observed). The cell were collected with media and spun at 3000 rpm for 5 minutes. The supernatant was aspirated and the well and the cells were washed with cold PBS once and combined for centrifugation again; the supernatant aspirated again. 200 uL pre-chilled RIPA lysis buffer (Boston BioProducts BP-115D) with protease/phosphatase inhibitor (Roche 05892791001/Roche 04906837001) was directly added into the tube to lyze the cells for 20 minutes on ice. The cell lysate were collected into EP tubes and spun at 13000 rpm for 20 minutes and 72 uL supernatant was transferred to a fresh EP tube containing 18 μL of 5× loading buffer (Beyotime Bio P0015) to make the loading samples. The samples were heated to 100° C. for 10 minutes and cooled to RT and microcentrifuged. 20 μL of samples were loaded onto SDS-PAGE gel (Novex, WG1402BOX) and the gel was run at 80 V for 20 minutes and 120 V for 1.5 hours. The samples were electrotransfer to a NC membrane using wet-transfer method with 250 mA for 2.5 hours. The membrane was blocked with LICOR blocking buffer (LI COR,927-50000) for 1 hour. The membrane was washed three times with TBST(CST #9997S), 5 minutes each. Incubation was performed with primary antibody prepared in blocking buffer with 0.1% Tween-20 (Solarbio, P8220) at 4° C. overnight (Anti-SMARCA2/BRM antibody (ab15597) 1:500; Anti-BRG1 antibody [EPR3912](ab108318) 1:1000; Rabbit anti-Bafl80 antibody [EPR15860](Abcam,ab196022) 1:1000; mouse anti-beta-Actin (8H10D10) (CST #3700) 1:10000). The membrane was washed three times with TBST, 5 minutes each. Incubation with secondary antibody was performed for 1 hour at RT (anti-rabbit IgG (Licor,926-32211) 1:5000; anti-mouse IgG (LI-COR, 926-68070) 1:5000). The membrane was washed three times with 5 minutes each and lastly the LiCOR was read.
The letter codes for SMARCA2/4 degradation potency (DC50) include: A (<1 nM), B (1-10 nM), C (>10-100 nM), and D (>100 nM). The letter codes for the percentage of SMARCA2/4 degradation after 24 hours (Dmax %) include: A (>90% degradation), B (>70-90% degradation), C (50-70% degradation), and D (<50% degradation). The letter codes of SMARCA2/4 selectivity include: A (>500 fold), B (>100-500 fold), C (10-100 fold), and D (<10 fold). Table 8. SMARCA2/4 Selectivity Results
Background: In western blotting, separated proteins are transferred to a membrane and probed.

Test [2] has as its target T1, SMARCA2. Nature of the test: SMARCA2 Western blot degradation in MV4-11 cells. The arrangement: SMARCA2/SMARCA4 protein degradation selectivity in MV4-11 cells; endogenous in cells; host or cells: MV4-11. The settings on record: for Dmax: MV4-11, MV4-11 cells, read-out: SMARCA2 MSD MV411 degradation 24 h: average Dmax %; for Dmax / DC50 / SMARCA2 MSD MV411 degradation 24 h: average Dmax %: 24 h; for DC50 / Selectivity in MV411 / SMARCA2 MSD MV411 degradation 24 h: average Dmax %: MV4-11 cells; for DC50: read-out: SMARCA2 MSD MV411 degradation 24 h: Mean external-Abs DC50; for Selectivity in MV411: SMARCA2/4 selectivity.

One may read the Dmax as the largest share of the target that was removed. One may read the DC50 as the concentration giving 50% degradation.

T1 sequence (P51531 whole entry): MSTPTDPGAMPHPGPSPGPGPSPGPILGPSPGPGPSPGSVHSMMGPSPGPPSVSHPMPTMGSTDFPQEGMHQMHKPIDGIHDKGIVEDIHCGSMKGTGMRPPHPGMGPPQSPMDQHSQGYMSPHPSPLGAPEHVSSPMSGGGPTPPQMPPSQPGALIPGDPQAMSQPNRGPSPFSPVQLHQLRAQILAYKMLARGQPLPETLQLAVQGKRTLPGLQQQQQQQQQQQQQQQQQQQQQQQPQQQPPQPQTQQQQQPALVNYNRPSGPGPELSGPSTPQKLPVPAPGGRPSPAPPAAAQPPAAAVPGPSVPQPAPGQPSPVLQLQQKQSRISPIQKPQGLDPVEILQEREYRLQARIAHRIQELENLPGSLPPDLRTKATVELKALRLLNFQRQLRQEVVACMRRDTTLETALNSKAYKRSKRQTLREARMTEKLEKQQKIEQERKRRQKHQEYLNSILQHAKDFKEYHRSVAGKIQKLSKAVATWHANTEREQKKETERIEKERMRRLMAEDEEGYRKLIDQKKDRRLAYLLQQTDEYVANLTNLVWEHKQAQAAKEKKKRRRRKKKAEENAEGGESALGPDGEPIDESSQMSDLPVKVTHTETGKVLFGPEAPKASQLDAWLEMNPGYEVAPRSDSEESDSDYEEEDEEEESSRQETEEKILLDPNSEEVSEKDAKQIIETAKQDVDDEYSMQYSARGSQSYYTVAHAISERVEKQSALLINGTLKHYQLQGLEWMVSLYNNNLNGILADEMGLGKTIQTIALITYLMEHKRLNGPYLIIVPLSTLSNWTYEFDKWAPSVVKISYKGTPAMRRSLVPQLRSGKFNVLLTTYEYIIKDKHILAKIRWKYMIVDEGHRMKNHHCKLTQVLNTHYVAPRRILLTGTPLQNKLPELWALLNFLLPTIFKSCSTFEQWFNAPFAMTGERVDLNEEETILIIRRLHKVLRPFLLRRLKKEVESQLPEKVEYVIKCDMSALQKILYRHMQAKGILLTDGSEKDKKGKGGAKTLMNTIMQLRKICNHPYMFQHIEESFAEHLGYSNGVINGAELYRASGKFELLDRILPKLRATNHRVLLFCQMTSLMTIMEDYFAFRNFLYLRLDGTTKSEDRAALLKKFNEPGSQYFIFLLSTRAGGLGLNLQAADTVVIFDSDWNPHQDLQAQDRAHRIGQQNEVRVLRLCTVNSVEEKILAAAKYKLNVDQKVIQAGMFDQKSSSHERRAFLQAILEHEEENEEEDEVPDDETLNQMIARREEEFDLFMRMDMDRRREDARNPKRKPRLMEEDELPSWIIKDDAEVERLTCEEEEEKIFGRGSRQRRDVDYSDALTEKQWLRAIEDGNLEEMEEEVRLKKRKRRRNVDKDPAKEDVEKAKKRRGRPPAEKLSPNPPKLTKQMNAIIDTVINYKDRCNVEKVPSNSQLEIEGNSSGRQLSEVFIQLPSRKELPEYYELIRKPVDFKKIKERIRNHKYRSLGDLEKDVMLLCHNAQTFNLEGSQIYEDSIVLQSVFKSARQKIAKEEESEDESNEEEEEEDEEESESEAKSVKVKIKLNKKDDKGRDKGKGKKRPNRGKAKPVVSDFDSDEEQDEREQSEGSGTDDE
T2 sequence (P51532 whole entry): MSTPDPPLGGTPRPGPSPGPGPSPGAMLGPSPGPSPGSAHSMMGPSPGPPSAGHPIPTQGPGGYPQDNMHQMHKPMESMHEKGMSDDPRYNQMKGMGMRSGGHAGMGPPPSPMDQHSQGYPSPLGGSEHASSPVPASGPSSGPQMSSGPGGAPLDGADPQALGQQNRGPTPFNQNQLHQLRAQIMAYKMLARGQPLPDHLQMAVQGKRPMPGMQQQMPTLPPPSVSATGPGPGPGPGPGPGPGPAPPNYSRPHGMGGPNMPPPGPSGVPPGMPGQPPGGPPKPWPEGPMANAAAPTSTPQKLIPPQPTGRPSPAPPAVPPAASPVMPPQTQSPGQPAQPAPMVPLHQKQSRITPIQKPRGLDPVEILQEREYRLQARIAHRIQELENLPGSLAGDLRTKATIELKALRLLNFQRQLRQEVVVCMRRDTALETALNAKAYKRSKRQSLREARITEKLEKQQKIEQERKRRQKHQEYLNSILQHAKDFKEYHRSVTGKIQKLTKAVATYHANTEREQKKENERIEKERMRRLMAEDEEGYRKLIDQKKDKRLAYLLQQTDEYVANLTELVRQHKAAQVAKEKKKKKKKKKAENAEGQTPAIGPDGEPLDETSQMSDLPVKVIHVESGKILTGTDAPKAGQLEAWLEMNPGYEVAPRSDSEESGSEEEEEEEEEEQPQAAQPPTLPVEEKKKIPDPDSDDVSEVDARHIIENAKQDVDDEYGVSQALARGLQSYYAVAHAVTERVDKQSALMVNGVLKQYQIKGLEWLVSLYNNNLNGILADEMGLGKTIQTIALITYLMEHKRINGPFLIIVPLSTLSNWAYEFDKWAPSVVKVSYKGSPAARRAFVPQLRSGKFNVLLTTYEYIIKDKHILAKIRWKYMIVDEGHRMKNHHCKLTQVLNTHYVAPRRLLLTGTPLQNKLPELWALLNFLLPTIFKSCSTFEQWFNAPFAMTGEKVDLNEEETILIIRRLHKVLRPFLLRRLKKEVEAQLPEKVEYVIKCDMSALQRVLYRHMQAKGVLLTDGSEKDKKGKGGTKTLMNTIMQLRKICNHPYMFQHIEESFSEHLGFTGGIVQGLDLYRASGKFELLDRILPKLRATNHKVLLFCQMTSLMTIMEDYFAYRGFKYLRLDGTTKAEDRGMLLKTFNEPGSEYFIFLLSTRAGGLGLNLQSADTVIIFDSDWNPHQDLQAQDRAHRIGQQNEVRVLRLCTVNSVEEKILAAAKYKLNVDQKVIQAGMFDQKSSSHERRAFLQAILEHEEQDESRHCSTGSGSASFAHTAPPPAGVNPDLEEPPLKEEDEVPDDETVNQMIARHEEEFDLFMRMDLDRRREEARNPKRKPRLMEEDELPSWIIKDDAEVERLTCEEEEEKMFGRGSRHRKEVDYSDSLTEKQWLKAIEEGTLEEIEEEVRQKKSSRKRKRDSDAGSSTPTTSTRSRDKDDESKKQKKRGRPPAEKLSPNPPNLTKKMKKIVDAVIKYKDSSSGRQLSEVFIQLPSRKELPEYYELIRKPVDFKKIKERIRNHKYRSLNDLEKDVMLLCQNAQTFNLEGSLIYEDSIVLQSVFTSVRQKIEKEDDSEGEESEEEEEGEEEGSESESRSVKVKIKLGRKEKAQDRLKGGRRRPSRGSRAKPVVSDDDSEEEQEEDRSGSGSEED

With `C#Cc1ccc(CNC(=O)[C@@H]2C[C@@H](O)CN2C(=O)[C@@H](NC(=O)[C@H]2CC3(C2)C[C@H](N2CCC(N4CCC(N5CCN6c7cc(-c8ccccc8O)nnc7NC[C@H]6C5)CC4)CC2)C3)C(C)(C)C)cc1` (single isomer, unassigned) [I-113], the figures for the Dmax at SMARCA2 [1], at SMARCA4 and at SMARCA2 [2] were over 90%, 50 to 70% and 70 to 90%, respectively. Besides, the DC50 on SMARCA2 [1] was 10 to 50 nM; on SMARCA4, over 100 nM; on SMARCA2 [2] it was 1 to 10 nM. Besides, the “Selectivity in MV411” value on SMARCA2 [2] is “B (B (>100-500 fold))”.

Regarding `C#Cc1ccc(CNC(=O)[C@@H]2C[C@@H](O)CN2C(=O)[C@@H](NC(=O)N2CC3(CC(N4CCC(c5cnc(N6CCc7[nH]c8nnc(-c9ccccc9O)cc8c7[C@H]6C)s5)CC4)C3)C2)C(C)(C)C)cc1` [I-323], on SMARCA2 [1], the Dmax is over 90% and the half-maximal degradation concentration (DC50) lay in the range of 10 to 50 nM. Further, at SMARCA4, the Dmax was in the range of 50 to 70% and the DC50 is over 100 nM. Further, at SMARCA2 [2], the Dmax fell in the range of 70 to 90%, the DC50 lay within 1 to 10 nM and the “Selectivity in MV411” value is given as “C (C (10-100 fold))”.

Regarding `Cc1ncsc1-c1ccc(CNC(=O)[C@@H]2C[C@@H](O)CN2C(=O)[C@@H](NC(=O)C2CC3(C2)CC(N2CCC(N4CCC(N5CCN6c7cc(-c8ccccc8O)nnc7NC[C@H]6C5)CC4)CC2)C3)C(C)(C)C)cc1` (some centres unmarked) [I-75], on SMARCA2 [1], the Dmax was over 90% and the DC50 is over 100 nM. On SMARCA4, the greatest degradation seen (Dmax) was under 50% and the DC50 is over 100 nM. For the same compound, at SMARCA2 [2], the Dmax fell in the range of 70 to 90%, the DC50 lay within 1 to 10 nM and the “Selectivity in MV411” value is recorded as “A (A (>500 fold))”.

For `Cc1ncsc1-c1ccc(CNC(=O)[C@@H]2C[C@@H](O)CN2C(=O)[C@@H](NC(=O)C2(F)CC2)C(C)(C)C)c(O[C@H]2CC[C@H](N3CCC(c4cnc(N5CCc6[nH]c7nnc(-c8ccccc8O)cc7c6[C@@H]5C)nc4)CC3)CC2)c1` (single isomer, unassigned) [I-33], at SMARCA2 [1], the maximal degradation (Dmax) was in the range of 50 to 70% and the DC50 was over 100 nM. Besides, at SMARCA4, the Dmax was under 50% and the DC50 is over 100 nM. Besides, at SMARCA2 [2], the Dmax was 50 to 70%, the DC50 lay within 10 to 100 nM and the “Selectivity in MV411” value was “C (C (10-100 fold))”.

Take `C#Cc1ccc(CNC(=O)[C@@H]2C[C@@H](O)CN2C(=O)[C@@H](NC(=O)[C@H]2CCC3(CC2)C[C@H](N2CCC(c4cnc(N5CCN6c7cc(-c8cccc(Cl)c8O)nnc7NC[C@@H]6C5)nc4)CC2)C3)C(C)(C)C)cc1` (single isomer, unassigned) [I-154]: at SMARCA2 [1], the “SMARCA2 MSD A549 degradation 24 h: Average Dmax %” value is listed as “A (A (>90% degradation))” and the DC50 is over 100 nM. Besides, at SMARCA2 [2], the “SMARCA2 MSD MV411 degradation 24 h: average Dmax %” value is listed as “C (C (50-70% degradation))” and the DC50 is 10 to 100 nM.

Turning to `Cc1ncsc1-c1ccc(CNC(=O)[C@@H]2C[C@@H](O)CN2C(=O)[C@@H](NC(=O)[C@H]2CCC3(CC2)C[C@H](N2CCN(c4cnc(N5CCc6[nH]c7nnc(-c8ccccc8O)cc7c6[C@H]5C)nc4)CC2)C3)C(C)(C)C)cc1` (single isomer, unassigned) [I-112], on SMARCA2 [1], the Dmax was over 90% and the DC50 is 50 to 100 nM. Moreover, at SMARCA2 [2], the Dmax was 50 to 70% and the DC50 was 10 to 100 nM.

With `C#Cc1ccc(CNC(=O)[C@@H]2C[C@@H](O)CN2C(=O)[C@@H](NC(=O)[C@H]2CCC3(CC2)C[C@H](N2CCC(c4cnc(N5CCN6c7cc(-c8cccc(Cl)c8O)nnc7NC[C@H]6C5)nc4)CC2)C3)C(C)(C)C)cc1` (single isomer, unassigned) [I-152], at SMARCA2 [1], the Dmax is 70 to 90% and the DC50 is over 100 nM. Besides, on SMARCA2 [2], the “SMARCA2 MSD MV411 degradation 24 h: average Dmax %” value is “C (C (50-70% degradation))” and the DC50 fell in the range of 10 to 100 nM.

`C#Cc1ccc(CNC(=O)[C@@H]2C[C@@H](O)CN2C(=O)[C@@H](NC(=O)[C@H]2CCC3(CC2)C[C@H](N2CCC(c4cnc(N5CCN6c7cc(-c8cccc(F)c8O)nnc7NC[C@H]6C5)nc4)CC2)C3)C(C)(C)C)cc1` (single isomer, unassigned) [I-157]: at SMARCA2 [1], the Dmax was over 90% and the DC50 lay within 50 to 100 nM. In addition, at SMARCA2 [2], the “SMARCA2 MSD MV411 degradation 24 h: average Dmax %” value was “B (B (>70-90% degradation))” and the DC50 was 1 to 10 nM.

For `Cc1ncsc1-c1ccc(CNC(=O)[C@@H]2C[C@@H](O)CN2C(=O)[C@@H](NC(=O)[C@H]2CCC3(CC2)C[C@H](N2CCN(c4cnc(N5CCc6[nH]c7nnc(-c8ccccc8O)cc7c6[C@H]5C)nc4)CC2)C3)C(C)(C)C)cc1` (single isomer, unassigned) [I-118], at SMARCA2 [1], the “SMARCA2 MSD A549 degradation 24 h: Average Dmax %” value is recorded as “B (B (>70-90% degradation))” and the DC50 was over 100 nM. On SMARCA2 [2], the “SMARCA2 MSD MV411 degradation 24 h: average Dmax %” value is “C (C (50-70% degradation))” and the DC50 lay within 10 to 100 nM.

Take `Cc1cc(F)ccc1C#CCNC(=O)[C@@H]1C[C@@H](O)CN1C(=O)[C@@H](NC(=O)[C@H]1CCC2(CC1)C[C@H](N1CCC(c3cnc(N4CCN5c6cc(-c7ccccc7O)nnc6NC[C@H]5C4)nc3)CC1)C2)C(C)(C)C` (single isomer, unassigned) [I-106]: the Dmax on SMARCA2 [1] and on SMARCA2 [2] was under 50% throughout. Moreover, the DC50 on SMARCA2 [1] and at SMARCA2 [2] was over 100 nM in each case.

For the compound `C#Cc1ccc(CNC(=O)[C@@H]2C[C@@H](O)CN2C(=O)[C@@H](NC(=O)C2CCC3(CC2)CC(N2CCC(c4cnc(N5CCN6c7cc(-c8ccccc8O)nnc7NC[C@H]6C5)nc4)CC2)C3)C2CCNCC2)cc1` (some centres unmarked) [I-132], the Dmax at SMARCA2 [1] and on SMARCA2 [2] was under 50% each time. The DC50 at SMARCA2 [1] and on SMARCA2 [2] was over 100 nM each time.
